The results in this text go back to US20020026053A1, “Novel 3-(substituted) -2- indolinones compounds and use thereof as inhibitors of protein kinase activity” (priority 1997, published 2002).

T1 sequence (P00533 25-1210): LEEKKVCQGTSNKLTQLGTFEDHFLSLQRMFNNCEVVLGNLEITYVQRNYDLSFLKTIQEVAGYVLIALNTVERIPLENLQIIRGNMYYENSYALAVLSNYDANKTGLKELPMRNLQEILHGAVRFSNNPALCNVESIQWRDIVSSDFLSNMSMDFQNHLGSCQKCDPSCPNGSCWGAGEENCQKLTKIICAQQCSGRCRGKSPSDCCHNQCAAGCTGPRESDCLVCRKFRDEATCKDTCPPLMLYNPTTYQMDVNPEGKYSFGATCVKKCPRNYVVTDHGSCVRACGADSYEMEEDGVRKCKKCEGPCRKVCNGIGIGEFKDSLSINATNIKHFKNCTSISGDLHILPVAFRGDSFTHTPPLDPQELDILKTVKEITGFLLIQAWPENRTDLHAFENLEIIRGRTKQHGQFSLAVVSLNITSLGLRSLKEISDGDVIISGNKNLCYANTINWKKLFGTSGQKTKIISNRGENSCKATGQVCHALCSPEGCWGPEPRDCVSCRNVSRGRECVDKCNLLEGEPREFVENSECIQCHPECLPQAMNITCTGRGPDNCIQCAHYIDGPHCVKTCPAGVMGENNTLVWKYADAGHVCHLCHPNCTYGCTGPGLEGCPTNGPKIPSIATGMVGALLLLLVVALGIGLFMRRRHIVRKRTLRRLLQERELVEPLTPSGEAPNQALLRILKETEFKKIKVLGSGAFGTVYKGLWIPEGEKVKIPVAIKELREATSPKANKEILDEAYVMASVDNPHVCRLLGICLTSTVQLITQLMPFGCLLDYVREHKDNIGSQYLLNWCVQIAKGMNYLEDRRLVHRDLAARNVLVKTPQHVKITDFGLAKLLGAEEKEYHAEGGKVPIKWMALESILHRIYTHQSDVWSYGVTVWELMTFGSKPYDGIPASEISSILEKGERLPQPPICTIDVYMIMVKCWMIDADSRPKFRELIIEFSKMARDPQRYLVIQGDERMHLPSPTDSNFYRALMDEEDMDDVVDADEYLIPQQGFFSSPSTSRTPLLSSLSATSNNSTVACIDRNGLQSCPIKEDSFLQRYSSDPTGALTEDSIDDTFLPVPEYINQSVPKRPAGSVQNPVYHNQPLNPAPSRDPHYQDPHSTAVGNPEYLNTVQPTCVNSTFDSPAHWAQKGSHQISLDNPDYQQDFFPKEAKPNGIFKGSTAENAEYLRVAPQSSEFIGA

The experiment addresses T1, EGFR (Homo sapiens, UniProt P00533).
T1 construct: endogenous in cells; host or cells: A431 cells (lysate, captured with SUMO1 anti-EGFR antibody)
Description: Biochemical EGFR Assay. Particulars: protocol P.167. On the set-up: concentration or dose not given beside the values. The essentials:
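Readout is ABTS absorbance at 410 nm after anti-phosphotyrosine and HRP-antibody detection of EGFR autophosphorylation. The kinase was immunocaptured from A431 lysate, exposed 30 min to test compound diluted 1:10 in TBS, then phosphorylated for 5 min with ATP/MnCl2 before an EDTA stop.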
As to `CNS(=O)(=O)c1ccc2c(c1)C(=Cc1ccc(OC)c(F)c1)C(=O)N2` [10737/D06], the “Biochem EGFR % Inhibition (P.167)” value was determined as 33.8%. With `Cc1ccc(C=C2C(=O)Nc3ccc(I)cc32)c(C)c1` [10737/B03], the “Biochem EGFR % Inhibition (P.167)” value is −34.9%.

Consider `Cc1c(Br)cc(Br)c2c1C(=Cc1ccccc1Cl)C(=O)N2` [10736/H11], for which the “Biochem EGFR % Inhibition (P.167)” value is on record as 11.1%. As for `CCOc1ccc(C=C2C(=O)Nc3ccc(Br)c(C)c32)cc1` [10737/C02], the figure is −22.0%.

Take `O=C1Nc2c(Br)cc(Br)cc2C1=Cc1cccc(F)c1F` [10737/A05]: the “Biochem EGFR % Inhibition (P.167)” value stood at 26.4%. As for `COc1ccc(C=C2C(=O)Nc3ccc(S(=O)(=O)N4CCOCC4)cc32)cc1F` [10737/F06], the figure is −13.7%; as for `Cc1ccc(C=C2C(=O)Nc3ccc(Br)c(C)c32)c(C)c1` [10737/C03], −0.7%; as for `O=C1Nc2ccc(S(=O)(=O)N3CCOCC3)cc2C1=Cc1cccc(F)c1F` [10737/F05], −24.0%. As for `CCOc1ccc(C=C2C(=O)Nc3c(Br)cc(Br)cc32)cc1` [10737/A02], the figure is 37.3%; as for `O=C1Nc2ccc(S(=O)(=O)N3CCOCC3)cc2C1=Cc1cccc(Oc2cccc(C(F)(F)F)c2)c1` [10737/F11], −0.7%. For `O=C1Nc2c(Br)cc(Br)cc2C1=Cc1ccc2ccccc2c1` [10737/A08], the “Biochem EGFR % Inhibition (P.167)” value was 35.8%.

Consider `Cc1c(Br)ccc2c1C(=Cc1cccc(F)c1F)C(=O)N2` [10737/C05], for which the “Biochem EGFR % Inhibition (P.167)” value is recorded as 13.3%. Take `CCOc1ccc(C=C2C(=O)Nc3ccc(S(=O)(=O)NC)cc32)cc1` [10737/D02]: the “Biochem EGFR % Inhibition (P.167)” value was −14.7%. Consider `COc1ccc(C=C2C(=O)Nc3ccc(CCCl)cc32)cc1F` [10737/G06], for which the “Biochem EGFR % Inhibition (P.167)” value is listed as −43.4%.

For the compound `CCOc1ccc(C=C2C(=O)Nc3ccc(I)cc32)cc1` [10737/B02], the “Biochem EGFR % Inhibition (P.167)” value is recorded as −34.0%.

Consider `O=C1Nc2ccc(I)cc2C1=Cc1cccc(Oc2cccc(C(F)(F)F)c2)c1` [10737/B11], for which the “Biochem EGFR % Inhibition (P.167)” value was −9.9%. Consider `Cc1c(Br)cc(Br)c2c1C(=Cc1cc(F)ccc1F)C(=O)N2` [10737/H04], for which the “Biochem EGFR % Inhibition (P.167)” value was −17.6%. `O=C1Nc2ccc(CCCl)cc2C1=Cc1ccc2ccccc2c1` [10737/G08]: the “Biochem EGFR % Inhibition (P.167)” value is 30.8%. Turning to `O=C1Nc2ccc(CCCl)cc2C1=Cc1ccc(Oc2ccccc2)cc1` [10737/G09], the “Biochem EGFR % Inhibition (P.167)” value amounted to 23.6%.

As for `Cc1ccc(C=C2C(=O)Nc3ccc(S(=O)(=O)N4CCOCC4)cc32)c(C)c1` [10737/F03], the “Biochem EGFR % Inhibition (P.167)” value was −3.1%.

Turning to `Cc1c(Br)ccc2c1C(=Cc1cccc(Oc3cccc(C(F)(F)F)c3)c1)C(=O)N2` [10737/C11], the “Biochem EGFR % Inhibition (P.167)” value is reported as −5.6%. For `O=C1Nc2ccc(S(=O)(=O)Nc3ccc(C(F)(F)F)cc3)cc2C1=Cc1cccc(Oc2cccc(C(F)(F)F)c2)c1` [10737/E11], the “Biochem EGFR % Inhibition (P.167)” value is on record as −33.4%. Take `COc1ccc(C=C2C(=O)Nc3c(Br)cc(Br)c(C)c32)cc1F` [10737/H06]: the “Biochem EGFR % Inhibition (P.167)” value is listed as −31.0%. Regarding `CC(C)(C)c1ccc(Oc2cccc(C=C3C(=O)Nc4c(Br)cc(Br)cc43)c2)cc1` [10737/A10], the “Biochem EGFR % Inhibition (P.167)” value came out at 10.9%. As for `Cc1c(Br)ccc2c1C(=Cc1cccc(Oc3ccc(C(C)(C)C)cc3)c1)C(=O)N2` [10737/C10], the “Biochem EGFR % Inhibition (P.167)” value is on record as −15.6%. As for `CC(C)(C)c1ccc(Oc2cccc(C=C3C(=O)Nc4ccc(CCCl)cc43)c2)cc1` [10737/G10], the figure is 17.2%; as for `O=C1Nc2ccc(S(=O)(=O)Nc3ccc(C(F)(F)F)cc3)cc2C1=Cc1cccc(F)c1F` [10737/E05], −8.6%; as for `CNS(=O)(=O)c1ccc2c(c1)C(=Cc1cccc(F)c1F)C(=O)N2` [10737/D05], 17.9%.

For the compound `CC(C)(C)c1ccc(Oc2cccc(C=C3C(=O)Nc4ccc(I)cc43)c2)cc1` [10737/B10], the “Biochem EGFR % Inhibition (P.167)” value was −7.3%. As for `O=C1Nc2ccc(S(=O)(=O)N3CCOCC3)cc2C1=Cc1cc(F)ccc1F` [10737/F04], the “Biochem EGFR % Inhibition (P.167)” value is reported as −23.3%. Turning to `Cc1ccc(C=C2C(=O)Nc3c(Br)cc(Br)cc32)c(C)c1` [10737/A03], the “Biochem EGFR % Inhibition (P.167)” value stood at 12.8%. In the case of `O=C1Nc2ccc(CCCl)cc2C1=Cc1cc(F)ccc1F` [10737/G04], the “Biochem EGFR % Inhibition (P.167)” value was −19.3%. Turning to `CC(C)(C)c1ccc(Oc2cccc(C=C3C(=O)Nc4ccc(S(=O)(=O)N5CCOCC5)cc43)c2)cc1` [10737/F10], the “Biochem EGFR % Inhibition (P.167)” value came out at 14.6%. Regarding `Cc1ccc(C)c(C=C2C(=O)Nc3ccc(S(=O)(=O)Nc4ccc(C(F)(F)F)cc4)cc32)c1` [10737/E07], the “Biochem EGFR % Inhibition (P.167)” value is on record as −12.3%.

For `CNS(=O)(=O)c1ccc2c(c1)C(=Cc1ccc3ccccc3c1)C(=O)N2` [10737/D08], the “Biochem EGFR % Inhibition (P.167)” value stood at 5.6%. The value for `CCOc1ccc(C=C2C(=O)Nc3ccc(CCCl)cc32)cc1` [10737/G02] was 12.4%; that for `CCOc1ccc(C=C2C(=O)Nc3ccc(S(=O)(=O)N4CCOCC4)cc32)cc1` [10737/F02] was 21.4%; that for `O=C1Nc2ccc(S(=O)(=O)Nc3ccc(C(F)(F)F)cc3)cc2C1=Cc1ccc2ccccc2c1` [10737/E08] was −7.8%. `O=C1Nc2ccc(S(=O)(=O)Nc3ccc(C(F)(F)F)cc3)cc2C1=Cc1cc(F)ccc1F` [10737/E04]: the “Biochem EGFR % Inhibition (P.167)” value was 15.4%. The value for `O=C1Nc2ccc(CCCl)cc2C1=Cc1cccc(F)c1F` [10737/G05] was −41.4%.

Regarding `O=C1Nc2ccc(I)cc2C1=Cc1ccc2ccccc2c1` [10737/B08], the “Biochem EGFR % Inhibition (P.167)” value turned out to be 15.4%. Take `O=C1Nc2ccc(S(=O)(=O)N3CCOCC3)cc2C1=Cc1ccc2ccccc2c1` [10737/F08]: the “Biochem EGFR % Inhibition (P.167)” value amounted to 28.3%. Turning to `Cc1c(Br)cc(Br)c2c1C(=Cc1ccccc1F)C(=O)N2` [10736/H08], the “Biochem EGFR % Inhibition (P.167)” value was −20.2%. Consider `CC(C)(C)c1ccc(Oc2cccc(C=C3C(=O)Nc4ccc(S(=O)(=O)Nc5ccc(C(F)(F)F)cc5)cc43)c2)cc1` [10737/E10], for which the “Biochem EGFR % Inhibition (P.167)” value is −4.2%. For the compound `CNS(=O)(=O)c1ccc2c(c1)C(=Cc1cc(F)ccc1F)C(=O)N2` [10737/D04], the “Biochem EGFR % Inhibition (P.167)” value is −27.7%. For the compound `CNS(=O)(=O)c1ccc2c(c1)C(=Cc1cccc(Oc3ccc(C(C)(C)C)cc3)c1)C(=O)N2` [10737/D10], the “Biochem EGFR % Inhibition (P.167)” value was −15.0%. With `Cc1ccc(C)c(C=C2C(=O)Nc3ccc(CCCl)cc32)c1` [10737/G07], the “Biochem EGFR % Inhibition (P.167)” value is −25.0%.

With `Cc1c(Br)ccc2c1C(=Cc1ccc3ccccc3c1)C(=O)N2` [10737/C08], the “Biochem EGFR % Inhibition (P.167)” value was found to be 16.3%. For the compound `O=C1Nc2ccc(I)cc2C1=Cc1cccc(F)c1F` [10737/B05], the “Biochem EGFR % Inhibition (P.167)” value was 17.4%. As for `CCOc1ccc(C=C2C(=O)Nc3c(Br)cc(Br)c(C)c32)cc1` [10737/H02], the “Biochem EGFR % Inhibition (P.167)” value is on record as −17.2%. The value for `Cc1c(Br)ccc2c1C(=Cc1ccc(Oc3ccccc3)cc1)C(=O)N2` [10737/C09] was 13.0%; that for `Cc1ccc(C=C2C(=O)Nc3ccc(CCCl)cc32)c(C)c1` [10737/G03] was −0.5%; that for `Cc1ccc(C)c(C=C2C(=O)Nc3c(Br)cc(Br)cc32)c1` [10737/A07] was 25.3%. On to `Cc1ccc(C=C2C(=O)Nc3c(Br)cc(Br)c(C)c32)c(C)c1` [10737/H03], for which the “Biochem EGFR % Inhibition (P.167)” value was −22.6%. With `COc1ccc(C=C2C(=O)Nc3ccc(I)cc32)cc1F` [10737/B06], the “Biochem EGFR % Inhibition (P.167)” value is reported as 22.5%.

Regarding `O=C1Nc2ccc(I)cc2C1=Cc1cc(F)ccc1F` [10737/B04], the “Biochem EGFR % Inhibition (P.167)” value worked out at 7.1%. The value for `Cc1ccc(C)c(C=C2C(=O)Nc3ccc(I)cc32)c1` [10737/B07] was 18.1%. The value for `COc1cccc(C=C2C(=O)Nc3c(Br)cc(Br)c(C)c32)c1` [10736/H10] was 45.6%. Regarding `O=C1Nc2c(Br)cc(Br)cc2C1=Cc1cccc(Oc2cccc(C(F)(F)F)c2)c1` [10737/A11], the “Biochem EGFR % Inhibition (P.167)” value is recorded as 10.8%.

`COc1ccc(C=C2C(=O)Nc3ccc(S(=O)(=O)Nc4ccc(C(F)(F)F)cc4)cc32)cc1F` [10737/E06]: the “Biochem EGFR % Inhibition (P.167)” value is given as −14.1%. `Cc1c(Br)cc(Br)c2c1C(=Cc1cccc(F)c1F)C(=O)N2` [10737/H05]: the “Biochem EGFR % Inhibition (P.167)” value is given as −17.4%. With `CNS(=O)(=O)c1ccc2c(c1)C(=Cc1ccc(C)cc1C)C(=O)N2` [10737/D03], the “Biochem EGFR % Inhibition (P.167)” value was −21.5%. As for `Cc1ccc(C)c(C=C2C(=O)Nc3ccc(Br)c(C)c32)c1` [10737/C07], the “Biochem EGFR % Inhibition (P.167)” value stood at 27.9%. As for `COc1ccc(C=C2C(=O)Nc3c(Br)cc(Br)cc32)cc1F` [10737/A06], the figure is 37.3%; as for `O=C1Nc2ccc(S(=O)(=O)N3CCOCC3)cc2C1=Cc1ccc(Oc2ccccc2)cc1` [10737/F09], 23.5%. `COc1ccc(C=C2C(=O)Nc3ccc(Br)c(C)c32)cc1F` [10737/C06]: the “Biochem EGFR % Inhibition (P.167)” value is given as 29.0%.

As to `Cc1ccc(C=C2C(=O)Nc3ccc(S(=O)(=O)Nc4ccc(C(F)(F)F)cc4)cc32)c(C)c1` [10737/E03], the “Biochem EGFR % Inhibition (P.167)” value was −4.5%.

Take `CNS(=O)(=O)c1ccc2c(c1)C(=Cc1cc(C)ccc1C)C(=O)N2` [10737/D07]: the “Biochem EGFR % Inhibition (P.167)” value came out at 16.1%.

As for `CNS(=O)(=O)c1ccc2c(c1)C(=Cc1ccc(Oc3ccccc3)cc1)C(=O)N2` [10737/D09], the “Biochem EGFR % Inhibition (P.167)” value is given as 13.7%.
